Earlier results on one molecule are cited in US20230357095A1, “HYDROGEN NANOBUBBLES INFUSED WATER FOR […] IRRIGATION” (L'Air Liquide, Societe Anonyme pour l'Etude et …, priority 2020, published 2023).

SMILES strings stand for the structures. Read-outs that look alike come from different tables or passages of the source.

For this series the following is noted: P=1 bar.

In the case of `[HH]` [hydrogen], the “Saturation concentration of hydrogen in pure water” value runs as follows: (T=273.1 K) 1.95 mg/L; (T=298.1 K) 1.60 mg/L.
